Values joined by “and” are separate entries in the source; they are usually repeats but may differ in a detail not shown here. Equal values may be shown once. Read-outs that look alike come from different tables or passages of the source.
How the values were obtained:
cytidine deaminase = assay: Incubation with crude cytidine deaminase extract of HEP-2 cells (deamination); type: in vitro ADME, human; conditions: crude HEP-2 cytidine deaminase extract; Whatman 3MM chromatography
[1] = Incubation with HNO2 (pH 4.5) at room temperature; type: physicochemical; conditions: 9 hours
Procedure: (§1) The results of incubation with HNO2 (pH 4.5) at room temperature were identical to those obtained above.

[2] = Incubation with acetate buffer (pH 4.5); type: physicochemical; conditions: 9 hours
Procedure: as §1

HSV-2 = assay: Antiviral activity vs HSV-2 in HEp-2 cells (plaque assay in BHK cells); type: cell-based; conditions: for Average Log10 S.F.: +H4 U
Procedure: (§2) The culture medium containing the nucleoside analogs at varying concentrations are added to the infected cultures. In the case of HEp-2 cells which contain high deaminase levels, H4 U is incorporated into the medium. At 48 hours, virus is harvested from the cultures by freezing and thawing. The virus produced from each culture is titred by plaque assay in BHK cells. By using this protocol the antiviral effectiveness of F3 methyl dC can be compared directly with the effectiveness of other antiviral agents. Furthermore, by including H4 U in the medium, the effectiveness of F3 methyl dC can be determined without deamination at the nucleoside level.

HEp-2 cells = assay: Cytotoxicity vs HEp-2 cells (colony formation, % survival); conditions: for % Survival: 2880 min
[3] = as above; conditions: human, hep-2 cells; for viability at 48 h, 60 µM: % S of HEp-2 cells, 0.06 mM; for viability at 48 h, 3 µM: 0.003 mM; for viability at 48 h, 30 µM: 0.03 mM; for viability at 48 h, 300 µM: 0.3 mM
Metabolic stability = conditions: versus prior antiviral agents
[4] = biological target: T1, HSV-2 induced pyrimidine deoxyribonucleoside kinase (Human herpesvirus 2 strain HG52, UniProt P89446); assay: Phosphorylation by HSV-2 induced pyrimidine deoxyribonucleoside kinase; type: biochemical
T1 construct: preparation not described in the excerpts
Source text: The following spots were eluted into H2 O and scanned from 225 to 350 nm: (a) standard, (b) F3 methyl dC standard, […] spot after cytidine deaminase treatment of F3 dT and […] spot after cytidine deaminase treatment of F3 methyl dC. The u.v. absorption profile of F3 dT derived from deamination of F3 methyl dC is identical to that obtained from authentic F3 dT.
Solutions a, c, and d, above, were adjusted to the same O. D. and used as substrates for HSV-2 induced pyrimidine deoxyribonucleoside kinase. Results:
Stock solutions of F3 dT and F3 methyl dC were made up and adjusted to the same concentration as the F3 dT and F3 methyl dC purified chromatographically (solutions a and b, respectively). Usually, F3 methyl dC is phosphorylated 1/6 of the extent that F3 dT is phosphorylated. […] This experiment was performed twice. Results:
Values for chromatographically purified samples are probably lower due to impurities arising from non-acid washed paper.

HSV-1 = assay: Antiviral activity vs HSV-1 in HEp-2 cells (plaque assay in BHK cells); type: cell-based; conditions: for Log10 S.F. vs HSV-1: + H4 U (from FIG. 3)
Procedure: as §2

[5] = tested on: Herpes-varicella-zoster virus (VZV); assay: Antiviral activity against cells infected with Herpes-varicella-zoster virus; type: cell-based
[6] = Survival / toxicity in the mouse; conditions: in vivo
Procedure: That is, 3 mg/kg body weight to 75 mg/kg body weight; for example, about 10 mg/kg body weight per day for 7 days or 700 mg for a 70 kg man per day for 7 days. […] 100 percent survival was obtained with a dose of 50 mg.

Solubility = type: physicochemical
[7] = % Survival, +H4 U 500 μg/ml (experiment 3 and 4)

T1 sequence (P89446 whole entry): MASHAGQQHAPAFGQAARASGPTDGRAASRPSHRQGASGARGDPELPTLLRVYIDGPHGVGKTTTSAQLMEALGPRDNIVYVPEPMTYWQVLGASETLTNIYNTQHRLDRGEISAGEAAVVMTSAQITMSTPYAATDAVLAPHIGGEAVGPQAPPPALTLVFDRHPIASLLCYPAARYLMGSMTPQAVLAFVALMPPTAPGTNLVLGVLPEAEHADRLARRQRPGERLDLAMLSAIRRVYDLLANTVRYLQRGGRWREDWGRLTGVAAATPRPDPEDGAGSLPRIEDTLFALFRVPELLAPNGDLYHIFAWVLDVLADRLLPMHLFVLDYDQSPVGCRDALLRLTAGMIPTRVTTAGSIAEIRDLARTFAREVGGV

## Nc1nc(=O)n([C@H]2C[C@H](O)[C@@H](CO)O2)cc1C(F)(F)F [F3 methyl dC, 5-trifluoromethyl-2'-deoxycytidine]
Cytidine deaminase
  chromatographic change on incubation with cytidine deaminase: formation of an Rf =0.43 spot and disappearance of the 0.80 spot
[1]
  conversion to a product that has the same Rf as F3 dT: approximately 98%
[2]
  modification in acetate buffer: did not lead to modification
HSV-2; 0.003 mM, +H4 U 500 μg/ml (experiment 3 and 4)
  Log10 Surviving Fraction of Plaque Forming Units: -1.9
HSV-2; 0.003 mM, average
  Average Log10 S.F.: -1.7
HSV-2; 0.03 mM, average
  Average Log10 S.F.: -3.6
HSV-2; 0.3 mM, +H4 U 100 μg/ml (experiment 1 and 2)
  Log10 Surviving Fraction of Plaque Forming Units: -3.7
HSV-2; 0.3 mM, average
  Average Log10 S.F.: -3.7
HSV-2; Human alphaherpesvirus 2, 48 h, 0.003 mM, -H4 U, average, read-out: Average Log10 S.F.
  log reduction at 3 µM: 0.94
HSV-2; Human alphaherpesvirus 2, 48 h, 0.03 mM, +2'dH4 U 500 μg/ml, read-out: Log10 S.F. HSV-2
  log reduction at 30 µM: 3.5
HSV-2; Human alphaherpesvirus 2, 48 h, 0.03 mM, +H4 U 500 μg/ml, read-out: Log10 S.F. HSV-2
  log reduction at 30 µM: 3.4
HSV-2; Human alphaherpesvirus 2, 48 h, 0.03 mM, -H4 U, average, read-out: Average Log10 S.F.
  log reduction at 30 µM: 3.2
HSV-2; Human alphaherpesvirus 2, 48 h, 0.03 mM, no addition, read-out: Log10 S.F. HSV-2
  log reduction at 30 µM: 3.3
HSV-2; Human alphaherpesvirus 2, 48 h, 0.3 mM, -H4 U, average, read-out: Average Log10 S.F.
  log reduction at 300 µM: 3.7
HSV-2; Human alphaherpesvirus 2, 48 h, 0.3 mM, -H4 U, read-out: Log10 Surviving Fraction of Plaque Forming Units
  log reduction at 300 µM: 3.7
HSV-2; Human alphaherpesvirus 2, 48 h, read-out: Log10 Surviving Fraction of Plaque Forming Units, 0.03 mM, -H4 U
  log reduction at 30 µM: 3.1
HEp-2 cells; 0.003 mM, +H4 U 100 μg/ml (experiment 1 and 2), 3 µM
  % Survival: 93%
HEp-2 cells; 0.003 mM, +H4 U 500 μg/ml (experiment 3 and 4), 3 µM
  % Survival: 61%
HEp-2 cells; 0.003 mM, -H4 U, 3 µM
  % Survival: 3% and 0.1% and 0.6%
HEp-2 cells; 0.03 mM, +H4 U 500 μg/ml (experiment 3 and 4), 30 µM
  % Survival: 31%
HEp-2 cells; +H4 U
  cytotoxicity at concentrations with antiviral activity: only marginally cytotoxic
HEp-2 cells; F3 methyl dC with H4 dU versus with H4 U
  increased survival with H4 dU than with H4 U: ~5 fold
HEp-2 cells; with H4 U, HSV-2 vs HEp-2 cytotoxicity
  therapeutic index: high therapeutic index
HEp-2 cells; without H4 U
  cytotoxicity at concentrations with antiviral activity: extremely cytotoxic
HEp-2 cells; ±H4 U (summary of Table IV)
  cytotoxicity at effective antiviral concentrations: marginal to only moderate cytotoxicity
[3]; +2'dH4 U 500 μg/ml
  viability at 48 h, 60 µM: 50 ± 5%
[3]; +H4 U 500 μg/ml
  viability at 48 h, 60 µM: 9 ± 3%
[3]; no addition
  viability at 48 h, 60 µM: < 0.006%
[3]; % Survival, +H4 U 100 μg/ml (experiment 1 and 2)
  viability at 48 h, 3 µM: 100%
[3]; [7]
  viability at 48 h, 3 µM: 53%
  viability at 48 h, 30 µM: 25%
  viability at 48 h, 300 µM: 0.001%
[3]; Average % S, +H4 U, average
  viability at 48 h, 3 µM: 77%
  viability at 48 h, 30 µM: 32%
  viability at 48 h, 300 µM: < 0.01%
[3]; Average % S, -H4 U, average
  viability at 48 h, 3 µM: 0.95%
  viability at 48 h, 30 µM: < 0.01%
  viability at 48 h, 300 µM: < 0.01%
Metabolic stability
  metabolic stability: substantially increased metabolic stability
[4]; chromatographically purified
  ratio of phosphorylation relative to F3 dT: Approx 1/3
[4]; chromatographically purified, value in parentheses (experiment performed twice)
  nmoles phosphorylated/4 hrs: 0.06 nmoles/4 hrs
[4]; chromatographically purified, value outside parentheses
  nmoles phosphorylated/4 hrs: 0.04 nmoles/4 hrs
[4]; standard solutions
  ratio of phosphorylation relative to F3 dT: Approx 1/4
[4]; standard solutions, value in parentheses (experiment performed twice)
  nmoles phosphorylated/4 hrs: 0.08 nmoles/4 hrs
[4]; standard solutions, value outside parentheses
  nmoles phosphorylated/4 hrs: 0.48 nmoles/4 hrs
[4]; usual value
  extent of phosphorylation relative to F3 dT: 1/6
HSV-1; 0.003 mM
  Log10 S.F. vs HSV-1: -4.2
HSV-1; 0.03 mM
  Log10 S.F. vs HSV-1: < -4.6
HSV-1; ±H4 U (FIG. 3)
  antiviral activity vs HSV-1 compared with F3 dT±H4 U: more potent antiviral activity than F3 dT±H4 U
[5]
  antiviral activity against cells infected with VZV: selective antiviral activity
[6]; 50 mg/kg/day for 7 days, coadministered with H4 U
  survival at 168 h: 100%
[6]; 250 mg/kg once per day for 7 days, H4 U coadministered one hour prior
  survival at 168 h: 60%
[6]; coadministered with H4 U, for 7 days
  LD50 at 168 h: 325 mg/kg
Solubility; DMSO
  solubility in DMSO: a solvent for the F3 methyl dC
Solubility; acetone
  solubility in acetone: insoluble in acetone
Solubility; water
  solubility in water: partially soluble in water

From patent US4210638A, “Antiviral composition and method of treating virus diseases” (PCR, Inc., priority 1978, dated 1980)
